The results in this text go back to PubChem BioAssay (NCI).

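Cultured in 96-well plates, cells were exposed to test compound for 48 hours across five concentrations. TGI denotes the concentration required for complete inhibition of growth.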 Where a SMILES comes first, the peptide text is derived from it. The star is where a group is joined. Boc = CC(C)(C)OC(=O)*; tBu = CC(C)(C)*

Among the test systems are SK-OV-3 ovarian; OVCAR-8 ovarian; SK-MEL-28 melanoma; UACC-257 melanoma; RPMI-8226 leukemia; MALME-3M melanoma; NCI-H226 lung; HOP-62 NSCLC; MCF7 breast; SR leukemia.
What all share (experiment): NCI-60 cell line screen, 48 h

Turning to `C=C1C(=O)O[C@@H]2[C@H]1C[C@H](I)[C@@]1(C)CC[C@H](O1)[C@](C)(I)CCCC(C)[C@@H]2O` (stereo not given in full), the TGI stood at 30.7 µM with SK-OV-3 ovarian; 8.12 µM with OVCAR-8 ovarian; 17.6 µM in the test with SK-MEL-28 melanoma; 20.1 µM with UACC-257 melanoma; 9.3 µM in the test on RPMI-8226 leukemia; 7.33 µM with MALME-3M melanoma. Besides, the TGI is 3.85 µM in the test on NCI-H226 lung, 35.2 µM with HOP-62 NSCLC, 7.29 µM in the test with MCF7 breast and 9.41 µM with SR leukemia.
Take `Cc1cc(NS(=O)(=O)c2ccc(NC(=O)c3ccc4nc5ccccc5c(Nc5ccc(S(=O)(=O)Nc6cc(C)on6)cc5)c4c3)cc2)no1`: the TGI with SK-OV-3 ovarian, with OVCAR-8 ovarian, in the test on SK-MEL-28 melanoma, with UACC-257 melanoma, with RPMI-8226 leukemia and in the test on MALME-3M melanoma was greater than 50 µM in each case. In addition, the TGI with NCI-H226 lung, with HOP-62 NSCLC, in the test with MCF7 breast and with SR leukemia was greater than 50 µM in each case.
On to `COC(=O)C1(Cc2ccccc2)Cc2c(C)ccc(C)c2C1=O` (stereo not given), for which the TGI in the test on SK-OV-3 ovarian is greater than 100 µM; in the test with OVCAR-8 ovarian it was 52.1 µM; in the test on SK-MEL-28 melanoma it was greater than 100 µM; with UACC-257 melanoma it was 64.9 µM; in the test with RPMI-8226 leukemia, 75.4 µM; with MALME-3M melanoma, 50.3 µM. Besides, the TGI is 97.3 µM with NCI-H226 lung, greater than 100 µM with HOP-62 NSCLC, 81.1 µM in the test on MCF7 breast and greater than 100 µM in the test with SR leukemia.
`CCOC(=O)[C@@H]1C[C@@H]1c1ccc(O)c(O)c1`: the TGI is greater than 100 µM in the test with SK-OV-3 ovarian; 52.2 µM in the test on OVCAR-8 ovarian; greater than 100 µM in the test with SK-MEL-28 melanoma; greater than 100 µM in the test on UACC-257 melanoma; 77 µM with RPMI-8226 leukemia; greater than 100 µM with MALME-3M melanoma. The TGI in the test with NCI-H226 lung is 97.4 µM; in the test with HOP-62 NSCLC it was greater than 100 µM; in the test with MCF7 breast, 35.2 µM; with SR leukemia, greater than 100 µM.
Regarding `Clc1ccc(Cn2cc(/C=N/n3cnnc3)c3ccccc32)cc1`, the TGI with SK-OV-3 ovarian, with OVCAR-8 ovarian, in the test on SK-MEL-28 melanoma, in the test with UACC-257 melanoma, in the test with RPMI-8226 leukemia and with MALME-3M melanoma was greater than 100 µM in each case. The TGI was 4.14 µM with NCI-H226 lung, greater than 100 µM in the test with HOP-62 NSCLC, greater than 100 µM with MCF7 breast and greater than 100 µM with SR leukemia.
On to `Cc1cc2c3c(c1)CCCN3CCC2`, for which the TGI with SK-OV-3 ovarian, with OVCAR-8 ovarian, in the test on SK-MEL-28 melanoma, in the test with UACC-257 melanoma, in the test on RPMI-8226 leukemia and in the test with MALME-3M melanoma was greater than 10 µM in each case. Further, the TGI in the test on NCI-H226 lung, in the test with HOP-62 NSCLC, in the test with MCF7 breast and with SR leukemia was greater than 10 µM in each case.
As to `CCCCOc1ccc(S(=O)(=O)/N=C(\N)Nc2ccc(Cl)cc2)cc1`, the TGI in the test with SK-OV-3 ovarian is 35 µM; in the test with OVCAR-8 ovarian it was 29.9 µM; with SK-MEL-28 melanoma, 32 µM; in the test on UACC-257 melanoma, 27.1 µM; in the test with RPMI-8226 leukemia, 45.8 µM; in the test on MALME-3M melanoma, 28.5 µM. Also, the TGI was found to be 44.4 µM with NCI-H226 lung, 44.2 µM in the test on HOP-62 NSCLC, 26.9 µM in the test on MCF7 breast and 28.7 µM with SR leukemia.
`CN(CCCNC(=O)c1c2ccc3ccccc3c2nn1C)CCCNC(=O)c1c2ccc3ccccc3c2nn1C`: the TGI was found to be 28.4 µM with SK-OV-3 ovarian; 27.2 µM with OVCAR-8 ovarian; 4.6 µM in the test with SK-MEL-28 melanoma; 3.57 µM in the test on UACC-257 melanoma; 4.86 µM in the test on RPMI-8226 leukemia; 8.71 µM in the test on MALME-3M melanoma. For the same molecule, the TGI in the test on NCI-H226 lung was found to be 31.1 µM; in the test with HOP-62 NSCLC, 33.7 µM; with MCF7 breast, 15.6 µM; in the test on SR leukemia, 13 µM.
On to `CCN(CCCl)c1cc(CN(C)C)cc(NC(=O)c2cc(C(=O)Nc3cc(CN(C)C)cc(N(CC)CCCl)c3)n(C)n2)c1`, for which the TGI is 3.3 µM with SK-OV-3 ovarian; 1.13 µM in the test on OVCAR-8 ovarian; 2.81 µM in the test with SK-MEL-28 melanoma; 2.89 µM in the test on UACC-257 melanoma; greater than 100 µM in the test on RPMI-8226 leukemia; 2.86 µM with MALME-3M melanoma. Further, the TGI was 4.16 µM in the test on NCI-H226 lung, 1.21 µM in the test on HOP-62 NSCLC, 1.38 µM with MCF7 breast and greater than 100 µM in the test with SR leukemia.
For the molecule `COC(=O)[C@]1(C)[C@H]2C[C@H]3O[C@H]4[C@H](O)[C@@H](O)OC(CC(O)C(C5=CC(=O)OC5)C(C5=CC(=O)OC5)C(O)CC56CCCCC7[C@@H](C)[C@H](C[C@H]8[C@](C)(C(=O)OC)[C@H](O)CC[C@]78C)O[C@H]([C@@H](O)[C@H](O)O5)[C@H]6O)(CCCCC([C@@H]3C)[C@]2(C)CC[C@@H]1O)[C@H]4O` (stereo not given in full), the TGI in the test on SK-OV-3 ovarian was determined as 0.735 µM; in the test with OVCAR-8 ovarian it was 1.2 µM; in the test on SK-MEL-28 melanoma, 10.4 µM; in the test with UACC-257 melanoma, 1.01 µM; with RPMI-8226 leukemia, 0.539 µM; in the test with MALME-3M melanoma, 0.407 µM. Also, the TGI in the test on NCI-H226 lung is 5.02 µM; with HOP-62 NSCLC it was 0.64 µM; in the test with MCF7 breast it was 1.58 µM; with SR leukemia, 0.253 µM.
On to `COc1cccc(/C=C2/S/C(=N/Nc3nc(C)c(C(C)=O)s3)NC2=O)c1O`, for which the TGI with SK-OV-3 ovarian was greater than 100 µM; in the test on OVCAR-8 ovarian it was greater than 100 µM; in the test on SK-MEL-28 melanoma, greater than 100 µM; in the test with UACC-257 melanoma it was 86.2 µM; in the test on RPMI-8226 leukemia it was 84.6 µM; in the test on MALME-3M melanoma it was 88.2 µM. Besides, the TGI in the test on NCI-H226 lung, in the test with HOP-62 NSCLC, in the test on MCF7 breast and in the test with SR leukemia was greater than 100 µM throughout.
Regarding `CON(C)C(=O)C(C)NC(=O)OC(C)(C)C` (stereo not given), the TGI with SK-OV-3 ovarian, in the test on OVCAR-8 ovarian, with SK-MEL-28 melanoma, in the test on UACC-257 melanoma, in the test on RPMI-8226 leukemia and with MALME-3M melanoma was greater than 100 µM throughout. Further, the TGI in the test on NCI-H226 lung, in the test with HOP-62 NSCLC, in the test on MCF7 breast and in the test with SR leukemia was greater than 100 µM in each case.
For the molecule `N=C(N)c1ccc(N=Nc2c(O)ccc3cc(O)ccc23)cc1`, the TGI with SK-OV-3 ovarian, in the test with OVCAR-8 ovarian, with SK-MEL-28 melanoma, with UACC-257 melanoma, in the test with RPMI-8226 leukemia and in the test with MALME-3M melanoma was greater than 100 µM in each case. The TGI with NCI-H226 lung, with HOP-62 NSCLC, with MCF7 breast and in the test with SR leukemia was greater than 100 µM each time.
As for `COc1ccc2c(C(=O)c3c(C)n(CCN4CCOCC4)c4ccccc34)cccc2c1`, the TGI in the test with SK-OV-3 ovarian is greater than 100 µM; in the test with OVCAR-8 ovarian, 59.4 µM; with SK-MEL-28 melanoma, greater than 100 µM; in the test with UACC-257 melanoma it was 97.9 µM; in the test with RPMI-8226 leukemia, 83.6 µM; with MALME-3M melanoma, 80.7 µM. Moreover, the TGI with NCI-H226 lung is greater than 100 µM; in the test with HOP-62 NSCLC, greater than 100 µM; in the test on MCF7 breast, 55.9 µM; in the test on SR leukemia, greater than 100 µM.
`CC(N)=O.[Cl][Pt][Cl].[NH-]c1ccn(C2OC(CO)C(O)C2O)c(=O)n1` (stereo not given): the TGI with SK-OV-3 ovarian, with OVCAR-8 ovarian, in the test with SK-MEL-28 melanoma, with UACC-257 melanoma, with RPMI-8226 leukemia and with MALME-3M melanoma was greater than 100 µM throughout. In addition, the TGI in the test with NCI-H226 lung, in the test with HOP-62 NSCLC, in the test with MCF7 breast and with SR leukemia was greater than 100 µM in each case.
For the molecule `COCCOCCOCCC(=O)NC1CC2CCC1(C)C2(C)C` (stereo not given), the TGI in the test with SK-OV-3 ovarian, in the test on OVCAR-8 ovarian, in the test on SK-MEL-28 melanoma, with UACC-257 melanoma, in the test with RPMI-8226 leukemia and with MALME-3M melanoma was greater than 100 µM throughout. Further, the TGI with NCI-H226 lung, with HOP-62 NSCLC, with MCF7 breast and in the test with SR leukemia was greater than 100 µM in each case.
Consider `CC(OC(C)(C)C)C(NC(=O)C(N)CCCCNC(=O)OC(C)(C)C)C(=O)NC(Cc1ccccc1)C(=O)O` (stereo not given) (H-Lys(Boc)-Thr(tBu)-Phe-OH; configuration not given here), for which the TGI in the test with SK-OV-3 ovarian, in the test with OVCAR-8 ovarian, in the test with SK-MEL-28 melanoma, in the test on UACC-257 melanoma, with RPMI-8226 leukemia and with MALME-3M melanoma was greater than 100 µM in each case. Also, the TGI with NCI-H226 lung, in the test on HOP-62 NSCLC, in the test on MCF7 breast and with SR leukemia was greater than 100 µM throughout.
Consider `CSC1(Cc2ccccn2)C(=O)Nc2cccc([N+](=O)[O-])c21` (stereo not given), for which the TGI in the test with SK-OV-3 ovarian, with OVCAR-8 ovarian, in the test on SK-MEL-28 melanoma, with UACC-257 melanoma, in the test with RPMI-8226 leukemia and in the test with MALME-3M melanoma was greater than 100 µM in each case. Moreover, the TGI in the test with NCI-H226 lung, with HOP-62 NSCLC, in the test with MCF7 breast and with SR leukemia was greater than 100 µM throughout.
